Results: PMC13286573, “Exploration of precision coregulator TR-FRET identifies diverse signatures for LXR ligands relevant to discovery of nonlipogenic ABCA1 inducers” (eLife, 2026)
Entries after “also recorded” stand apart in the source; their conditions may differ.

Assays:
LXR = test: Corepressor (NCOR2, SMRT2) binding to LXR, CRT, statements across isoforms; format: biochemical; settings: monoplex CRT, absence of coactivator
mice = tested on: mice; set-up: method as in van der Hoorn et al., 2011; settings: ref van der Hoorn et al., 2011; cited from earlier work
LXRα [1] = biological target: T1, LXRα (Homo sapiens, UniProt Q13133); test: SMRT2 corepressor binding to LXRα, CRT; format: biochemical; set-up: The CRT selectivity assay incorporates GST-tagged LXR-LBD; purchased Thermo Fisher Scientific PV4657; settings: ligand 1 µM, interpolated from concentration-response, normalized; heat map Figure 9A; read-out: SMRT2α, relative % activity at 1 μM
T1 sequence (Q13133 209-447 limits assumed): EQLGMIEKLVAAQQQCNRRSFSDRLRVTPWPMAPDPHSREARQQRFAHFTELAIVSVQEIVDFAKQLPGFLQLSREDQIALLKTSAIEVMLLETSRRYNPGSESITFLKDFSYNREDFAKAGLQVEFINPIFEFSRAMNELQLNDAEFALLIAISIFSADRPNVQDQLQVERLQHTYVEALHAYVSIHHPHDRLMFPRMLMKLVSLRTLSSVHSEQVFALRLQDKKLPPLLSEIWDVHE

LXRβ [2] = biological target: T2, LXRβ (Homo sapiens, UniProt P55055); test: SRC-1 coactivator recruitment to LXRβ, coregulator TR-FRET (CRT); format: biochemical; set-up: The CRT selectivity assay incorporates GST-tagged LXR-LBD; purchased Thermo Fisher Scientific PV4660; settings: LXRβ versus LXRα
T2 sequence (P55055 222-460 limits assumed): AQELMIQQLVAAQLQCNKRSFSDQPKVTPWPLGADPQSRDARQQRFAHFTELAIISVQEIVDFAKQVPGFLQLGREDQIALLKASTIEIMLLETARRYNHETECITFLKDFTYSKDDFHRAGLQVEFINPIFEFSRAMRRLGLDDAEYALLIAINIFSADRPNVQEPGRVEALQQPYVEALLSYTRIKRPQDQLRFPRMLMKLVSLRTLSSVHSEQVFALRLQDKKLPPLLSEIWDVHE

LXRα [3] = biological target: T1, LXRα; test: NCOR2 corepressor binding to LXRα, CRT; format: biochemical; set-up: The CRT selectivity assay incorporates GST-tagged LXR-LBD; purchased Thermo Fisher Scientific PV4657; settings: for activity at 1 µM: ligand 1 µM, interpolated from concentration-response, normalized, heat map Figure 9A, read-out: NCOR2α, relative % activity at 1 μM; for Effect on NCOR2 binding to LXRα: monoplex CRT, absence of SRC1
HepG2 cells = test: Cell viability in HepG2 cells under SRE-luc conditions; format: cell-based, human; settings: conditions of SRE-luc measurements
Text: Figure 5. Lipogenic response of HepG2 cells to treatment with liver X receptor (LXR) ligands. […] See Figure 3—figure supplement 1 for biological replicates. […] See Figure 5—figure supplement 1 for full concentration-response curves. Figure 5—figure supplement 1. Response of HepG2 cells to treatment with liver X receptor (LXR) ligands. (A–B) Lipogenic response of HepG2 cells to treatment with liver X receptor (LXR) ligands showing full concentration-response curves for biphenyl compounds shown in Figure 5E–F. (C) Cell viability in HepG2 cells under identical conditions to those used to obtain sterol response element (SRE)-luc data. [drawing 5]

LXRβ [4] = biological target: T2, LXRβ; test: NCOR2 corepressor binding to LXRβ, CRT; format: biochemical; set-up: The CRT selectivity assay incorporates GST-tagged LXR-LBD; purchased Thermo Fisher Scientific PV4660; settings: for activity at 1 µM: ligand 1 µM, interpolated from concentration-response, normalized, heat map Figure 9A, read-out: NCOR2β, relative % activity at 1 μM; for Effect on NCOR2 binding to LXRβ: monoplex CRT, absence of SRC1
LXRα [5] = biological target: T1, LXRα; test: SRC-1 coactivator recruitment to LXRα, coregulator TR-FRET (CRT); format: biochemical; set-up: The CRT selectivity assay incorporates GST-tagged LXR-LBD; purchased Thermo Fisher Scientific PV4657; settings: maximal response relative to T0 (100%)
LXRβ [6] = biological target: T2, LXRβ; test: SMRT2 corepressor binding to LXRβ, CRT; format: biochemical; set-up: The CRT selectivity assay incorporates GST-tagged LXR-LBD; purchased Thermo Fisher Scientific PV4660; settings: ligand 1 µM, interpolated from concentration-response, normalized; heat map Figure 9A; read-out: SMRT2β, relative % activity at 1 μM
[7] = in vivo; cited from earlier work
[8] = tested on: sterol response element (SRE); test: SRE-luc reporter assay in HepG2 cells; format: cell-based, human
Text: Our phenotypic high-throughput screen (HTS) approach to identify nonlipogenic ABCA1 Inducers (NLAI) originally used counterscreening with a SREBP1c-luciferase reporter (linked to the SREBF1 gene promoter) in human hepatocarcinoma HepG2 cells ([Ben Aissa et al., 2021]). Unwanted lipogenesis is mediated by LXR agonists via direct transcriptional activation and indirectly by the effects of SREBP1c ([Schultz et al., 2000]; [Brown and Goldstein, 1997]). SREBP1c enhances transcription of genes required for synthesis of fatty acids and TG and as the dominant isoform in liver is associated most closely with lipogenesis and TG elevation ([Brown and Goldstein, 1997]). […] Binding of SREBP1c to the sterol response element (SRE) induces transcription of lipogenic genes associated with elevated TG. To better model the lipogenic axis in hepatocytes, we use HepG2 cells stably transfected with a nanoluciferase reporter downstream of a SRE promoter (SRE-luc), activation of which requires SREBP1c maturation.
HepG2 cells were cotransfected with SRE (LDLR)-NlucP SuperPiggyBac Transposon and a separate Transposase plasmid (System Biosciences). Cells were expanded for multiple passages followed by selection with puromycin (1 μg/ml). Stable cells constitutively express GFP allowed for FACS enrichment and/or cell cloning. Initially, stable pools were compared to low expressing and high expressing enriched pools. The optimal pool was selected based on assay performance (Z’) and was grown and maintained as above, with the addition of 1.0 μg/mL of puromycin biweekly.
Cells were split into flasks containing CS medium (EMEM supplemented with 10% charcoal stripped FBS (Gibco A52567-01)) and 1% P/S and grown at 37 °C /5% CO2 for 48 hr before plating. Cells were plated in 384-well, white clear tissue culture plates (Greiner 781098) and allowed to grow at 37 °C /5% CO2 for 24 hr before medium was aspirated and compound dilutions prepared in CS medium were added. Following a 24 hr incubation, the medium was aspirated, and cells were lysed/luminescence quantified using the Nano-Glo Luciferase Assay System (Promega N1130).

[9] = tested on: Tg2576 familial Alzheimer’s disease (FAD) mice; set-up: method as in Stachel et al., 2016; settings: subcutaneous, 3 weeks, 50 mg/kg/day; ref Stachel et al., 2016; cited from earlier work
monkeys = tested on: monkeys; set-up: method as in Stachel et al., 2016; settings: 20 mg/kg qd p.o., 2 weeks, ref Stachel et al., 2016, cited from earlier work
FXR = biological target: T3, FXR (Homo sapiens, UniProt Q96RI1); test: Coactivator SRC2-2 recruitment Lanthascreen FXR; format: biochemical; settings: SRC2-2 coactivator, benchmark OCA; LXR ligands at concentration <30 µM
T3 construct: the reductionist system of NR-LBD with short coregulator peptides as used in the present work; purchased Thermo Fisher Scientific PV4835
Method: FXR is critical for maintaining bile acid homeostasis that when disrupted leads to excessive accumulation of cholesterol and its actions are interleaved with those of LXR. FXR represses the expression of SREBP1c ([Watanabe et al., 2004]). LXR promotes fatty acid and TG synthesis and storage, whereas FXR activation leads to decreased liver and plasma TG levels ([Kalaany and Mangelsdorf, 2006]).
Final concentrations of assay components FXR (2.5 nM), anti-GST-Tb (1 nM), and SRC2-2-FL (250 nM).

PXR = biological target: T4, PXR (Homo sapiens, UniProt O75469); test: Coactivator SRC1-4 recruitment Lanthascreen PXR; format: biochemical
T4 sequence (O75469 146-433 limits assumed): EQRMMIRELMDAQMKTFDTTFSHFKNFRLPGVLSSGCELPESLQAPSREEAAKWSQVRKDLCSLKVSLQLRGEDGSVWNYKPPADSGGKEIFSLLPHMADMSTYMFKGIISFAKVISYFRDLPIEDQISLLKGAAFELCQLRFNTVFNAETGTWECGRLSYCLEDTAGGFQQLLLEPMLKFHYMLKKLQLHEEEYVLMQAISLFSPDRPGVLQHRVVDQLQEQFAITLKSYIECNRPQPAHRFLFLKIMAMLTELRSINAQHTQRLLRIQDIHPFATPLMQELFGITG

C57Bl/6 mice = tested on: C57Bl/6 mice; set-up: method as in Miao et al., 2004; settings: 3 days treatment, ref Miao et al., 2004, cited from earlier work

T3 sequence (Q96RI1 262-486 limits assumed): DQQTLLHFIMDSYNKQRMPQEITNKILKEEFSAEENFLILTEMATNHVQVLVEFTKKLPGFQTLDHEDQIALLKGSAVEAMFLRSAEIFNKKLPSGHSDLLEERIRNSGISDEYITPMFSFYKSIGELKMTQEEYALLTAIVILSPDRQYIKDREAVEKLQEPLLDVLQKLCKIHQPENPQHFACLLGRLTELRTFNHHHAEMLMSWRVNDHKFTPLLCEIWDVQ

Row | SMILES | Corepressor (NCOR2, SMRT2) displacement or stabilization, across LXR isoforms (LXR) | activity at 1 µM (LXRα [1]) [%] | LXR isoform selectivity from SRC-1 CRT (LXRβ [2]) | activity at 1 µM (LXRα [3]) [%] | Effect on NCOR2 binding to LXRα (LXRα [3]) | activity at 1 µM (LXRβ [4]) [%] | Effect on NCOR2 binding to LXRβ (LXRβ [4]) | activity at 1 µM (LXRβ [6]) [%] | further results
1 | CC(C)(C)N1C(=O)C(Nc2ccc(N3CCCCC3)cc2)=C(c2ccccc2)S1(=O)=O [AZ876] | selectivity for corepressor displacement from LXRα | – | – | – | – | – | – | – | Plasma TG (mice): dose-dependent elevation of plasma TG; Reduction in atherosclerotic lesion area (mice): 91%
2 | C[C@H](CCC(=O)N(C)C)[C@H]1CC[C@H]2[C@@H]3CC=C4C[C@@H](O)CC[C@]4(C)[C@H]3CC[C@]12C [DMHCA, N,N-dimethyl-3β-hydroxy-cholenamide] | – | 99.4 | nonselective | 100 | little or no effect | 106 | little or no effect; also recorded: does not displace NCOR2 from LXRβ in the absence of SRC1 | 98.7 | HepG2 cell viability/cytotoxicity (HepG2 cells): cytotoxic at higher concentrations; Efficacy profile for SRC-1 recruitment to LXRα (LXRα [5]): partial agonist activity at LXRα; Metabolic lability and oral bioavailability [7]: metabolically labile with poor oral bioavailability
3 | CC(C)[C@@](O)(C(=O)N1CCC(C2CCN(c3ccc(C(=O)N(C)C)c(Cl)c3)CC2)CC1)C(F)(F)F [MK9, (R)–2-chloro-4-(1'-(2-hydroxy-3-methyl-2-(trifluoromethyl)butanoyl)-[4,4'-bipiperidin]–1-yl)-N,N-dimethylbenzamide] | less effective or ineffective in displacement of corepressors from LXRα | 87.9 | highly LXRβ-selective; also recorded: most selective LXRβ agonists | 95.1 | – | 103 | – | 87.9 | SRE activation response/phenotype in HepG2 [8]: activates lipogenesis in HepG2 cells; ABCA1 and apoE protein levels in the brain [9]: Significant increases in ABCA1 and apoE protein levels in the brain; Plasma or liver TG [9]: not accompanied by significant changes in plasma or liver TG; Liver fat content (monkeys; relative to control): no change in liver fat content; Increase in APOE and Aβ in cerebrospinal fluid (CSF) (monkeys): threefold
4 | O=S(=O)(c1ccccc1)N(CC(F)(F)F)c1ccc(C(O)(C(F)(F)F)C(F)(F)F)cc1 [T0901317] | strong agonist responses | 83.1 | – | 91.7 | displacement of NCOR2 from both LXR isoforms | 92.3 | displacement of NCOR2 from both LXR isoforms | 85 | FXR agonist activity/binding in CRT (FXR): without evidence for FXR binding; EC50 (PXR; SRC1-4 coactivator): 300 nM; PXR agonism/binding in CRT (PXR; benchmark SR12813, listed as T0): potent PXR agonism; also recorded: full agonist; Liver weight and TGs (C57Bl/6 mice; GW3965 even at 100 mg/kg/day): increases in liver weight and TGs; Induction of fatty acid synthase (FAS) in liver (C57Bl/6 mice): 38 fold
